Measurements as given in paper PMC5920098, “Identification of the allosteric P2X7 receptor antagonist [^11C]SMW139 as a PET tracer of microglial activation” (Scientific Reports, 2018).
“Also recorded” adds a separate entry of the source.

Tests used:
human P2X7R = target: human P2X7R; parameters: method as in PMID 28841278; settings: cited from earlier work
hP2X7R = target: T1, hP2X7R (Homo sapiens, UniProt Q99572); assay: PET imaging in rats locally overexpressing hP2X7R in right striatum; assay type: in vivo, rat; settings: 30 mg·kg^−1 s.c., 45 min prior to tracer injection
T1 construct: 3xFLAG (3flag); expressed in transfected cells; host or cells: rat striatum (female Wistar rats), transduced in vivo with the AAV vector rAAV_3flag-hP2X7R
T1 sequence (Q99572 1-595): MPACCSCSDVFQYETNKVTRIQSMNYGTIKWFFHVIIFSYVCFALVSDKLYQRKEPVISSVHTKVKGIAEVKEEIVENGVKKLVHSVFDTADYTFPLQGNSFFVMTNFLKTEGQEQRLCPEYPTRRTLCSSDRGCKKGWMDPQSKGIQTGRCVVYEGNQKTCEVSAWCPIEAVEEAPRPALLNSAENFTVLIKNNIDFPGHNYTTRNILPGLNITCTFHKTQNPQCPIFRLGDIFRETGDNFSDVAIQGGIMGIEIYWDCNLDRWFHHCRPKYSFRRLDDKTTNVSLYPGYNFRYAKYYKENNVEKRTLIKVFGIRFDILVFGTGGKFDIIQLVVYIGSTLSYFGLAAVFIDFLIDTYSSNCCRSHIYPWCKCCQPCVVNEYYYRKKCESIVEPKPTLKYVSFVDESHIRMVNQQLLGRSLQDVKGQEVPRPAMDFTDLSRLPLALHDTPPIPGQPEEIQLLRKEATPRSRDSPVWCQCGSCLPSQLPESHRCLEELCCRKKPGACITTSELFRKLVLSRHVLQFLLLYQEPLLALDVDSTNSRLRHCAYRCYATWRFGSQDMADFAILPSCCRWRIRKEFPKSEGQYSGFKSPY
Procedure: Uptake of [^11C]SMW139 was 1.5-fold higher in the right striatum compared with the contralateral striatum at 4–15 min p.i. (n = 3; Fig. 6A,B, and Supplementary Figure S5, 5 weeks after vector injection). […] (2.85 ± 0.69 vs. 2.30 ± 0.36 in contralateral striatum) throughout the remainder of the scanning time.
Female rats were injected with the hP2X7R expressing vector in the right striatum, and eGFP expressing vector in the left striatum, which is described in detail in the Supplementary Information. […] To confirm stable expression of hP2X7R during the time period in which PET scanning studies were conducted, autoradiography experiments were performed both prior to and following PET experiments. In a dedicated small animal PET scanner (nanoPET, Mediso Ltd.), 60 min dynamic PET scans were acquired immediately after intravenous administration of 16–20 MBq of [^11C]SMW139. […] 45 min prior to tracer injection. After data reconstruction (details in Supplementary Information), images were analysed using the freely available AMIDE software (version 0.9.2; http://amide.sourceforge.net). ROIs were drawn around ipsi- and contralateral striata. Results are expressed as standardised uptake values (SUVs) and error bars indicate standard deviation.
Stereotactic injection of viral vector […]
to a 10 µL Hamilton syringe. […]
dorsoventral -0.64 cm relative to bregma. […]
minutes before removing it slowly.
Rats were sacrificed for in
Dynamic PET imaging was performed using dedicated small animal NanoPET/CT and NanoPET/MR scanners (Mediso Ltd., Budapest, Hungary) which are equipped with identical PET components. […]
anaesthetised with 4% and 2% isoflurane in oxygen (1 L·min-1) for induction and maintenance, respectively. Rats were positioned on the scanner bed and their respiratory rate was monitored during the entire scan, and anaesthesia was adjusted whenever required. Dynamic PET scans were acquired immediately after intravenous (i.v.) administration of 16-20 MBq of [11C]SMW139 via the tail vein. For […]
hydroxypropyl)-β-cyclodextrin in water for injection 45 min prior to tracer injection. PET scans were acquired in list mode and rebinned into the following frame sequence: 4 × 5, 4 x 10, 2 x 30, 3x 60, 2 x 300, 1 x 600, 1 x 900 and 1 x 1200 s. Reconstruction was performed using a fully 3-dimensional reconstruction algorithm (Tera-TomoTM, Mediso Ltd.) with 4 iterations and 6 subsets, and an isotropic 0.4 mm voxel dimension. Images were analysed using the freely available AMIDE software (version 0.9.2; http://amide.sourceforge.net). 3D ellipsoid ROIs (dimensions x = 3.4 mm, y = 3.6 mm, z = 2.9 […]
mm) were drawn within ipsi- and contralateral striata. Results are expressed as standardised uptake values (SUVs) and error bars indicate standard deviation. SUV were calculated as follows, with cimg in MBq/mL, injected dose in MBq and bodyweight in kg:
An unpaired two-tailed t-test was used for statistical analysis of PET data, which was performed using […]
allowed to recover for 1 week after scanning. After 1 week of recovery following the final scan (12 weeks after stereotactic vector injection) animals were sacrificed, and brains were excised and stored […]
Extended single microdose toxicity study
A single microdose toxicity study according to EMEA guideline EMA/CPMP/ICH/286/1995 (December 2009) was performed in healthy Wistar rats at a 1000 times higher dose than the maximal dose […]
minimum specific activity of 18.5 GBq·µmol-1). Animals were allowed to acclimatise for 10 days, group-housed and in an enriched environment with food and water available ad libitum, and with a 12-hour light-dark cycle in a temperature controlled room.

P2X7R = target: T2, P2X7R (Homo sapiens, UniProt Q99572); assay: In vitro autoradiography on post mortem human brain tissue (AD patients and controls); assay type: binding; settings: blocker 10 µM, AD patients and controls
T2 construct: Snap frozen human post-mortem; tissue The Netherlands Brain Bank; host or cells: post mortem human temporal cortex (AD patients and non-neurological controls)
T2 sequence (Q99572 1-595): T1 sequence (Q99572 1-595)

Row | SMILES | Ki (human P2X7R) | Effect of pre-treatment on [^11C]SMW139 uptake/binding in rAAV_3flag-hP2X7R striatum (hP2X7R) | Blocking of [^11C]SMW139 binding in post mortem human brain tissue (P2X7R)
1 | COc1ccc(Cl)c(C(=O)NCC23CC4CC(F)(CC(F)(C4)C2)C3)c1 [compound 3] | 23 nM |  | 
2 | COc1ccc(Cl)c(C(=O)NCC23CC4CC(CC(F)(C4)C2)C3)c1 [compound 2] | 22 nM |  | 
3 | COc1ccc(Cl)c(C(=O)NCC23CC4CC(CC(C4)C2)C3)c1 [compound 1] | 9 nM |  | 
4 | O=C(NCC1(N2CCN(c3ccccc3)CC2)CCOCC1)c1cccnc1Sc1ccccc1 [JNJ-47965567, reference compound] |  | down to baseline levels; also recorded: significantly decreased | fully blocked; also recorded: virtually complete blocking
